Legend:
Klebsiella pneumoniae [1] = assay: Activity of Klebsiella pneumoniae TEM26 assessed as drug hydrolysis by spectrophotometry relative to cephaloridine; set-up: scale not given: the % may be the effect or the level left
[2] = target: Beta-lactamase (Pseudomonas aeruginosa (strain ATCC 15692 / PAO1 / 1C / PRS 101 / LMG12228)) (UniProt P24735); assay: Ratio of Kcat to Km of Pseudomonas aeruginosa 18SH AmpC assessed as drug hydrolysis by spectrophotometry relative to cephaloridine; set-up: scale not given: the % may be the effect or the level left
[3] = target: Beta-lactamase (Staphylococcus aureus) (UniProt P00807); assay: Activity of Staphylococcus aureus betalactamase PC1 assessed as drug hydrolysis by spectrophotometry relative to cephaloridine; set-up: scale not given: the % may be the effect or the level left
[4] = target: T1, Beta-lactamase (Klebsiella oxytoca) (UniProt Q8RT60); assay: Activity of Klebsiella oxytoca beta-lactamase K1 assessed as drug hydrolysis by spectrophotometry relative to cephaloridine; set-up: scale not given: the % may be the effect or the level left
T1 sequence (whole entry): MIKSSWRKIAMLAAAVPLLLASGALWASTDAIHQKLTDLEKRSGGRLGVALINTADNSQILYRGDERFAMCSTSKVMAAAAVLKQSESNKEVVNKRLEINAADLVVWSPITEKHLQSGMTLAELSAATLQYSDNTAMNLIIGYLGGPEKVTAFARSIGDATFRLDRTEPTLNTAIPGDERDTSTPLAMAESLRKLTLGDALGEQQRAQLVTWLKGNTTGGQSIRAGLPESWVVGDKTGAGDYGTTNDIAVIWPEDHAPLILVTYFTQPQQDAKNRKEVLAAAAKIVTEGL

[5] = target: T2, Beta-lactamase SHV-1 (Klebsiella pneumoniae) (UniProt P0AD64); assay: Activity of Klebsiella pneumoniae SHV1 assessed as drug hydrolysis by spectrophotometry relative to cephaloridine; set-up: scale not given: the % may be the effect or the level left
T2 sequence (whole entry): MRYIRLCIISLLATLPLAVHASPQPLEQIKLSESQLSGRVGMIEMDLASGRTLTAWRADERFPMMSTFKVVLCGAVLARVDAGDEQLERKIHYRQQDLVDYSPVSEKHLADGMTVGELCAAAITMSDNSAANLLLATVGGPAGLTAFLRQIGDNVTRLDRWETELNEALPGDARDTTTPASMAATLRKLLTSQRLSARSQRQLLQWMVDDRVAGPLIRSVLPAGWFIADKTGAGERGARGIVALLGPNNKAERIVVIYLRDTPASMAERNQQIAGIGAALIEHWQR

[6] = target: Beta-lactamase (Staphylococcus aureus) (UniProt P00807); assay: Ratio of Kcat to Km of Staphylococcus aureus betalactamase PC1 assessed as drug hydrolysis by spectrophotometry relative to cephaloridine; set-up: scale not given: the % may be the effect or the level left
[7] = target: Metallo beta-lactamase (Pseudomonas aeruginosa) (UniProt Q6TUJ4); assay: Ratio of Kcat to Km of Pseudomonas aeruginosa IMP1 assessed as drug hydrolysis by spectrophotometry relative to cephaloridine; set-up: scale not given: the % may be the effect or the level left
[8] = target: Beta-lactamase TEM (Escherichia coli) (UniProt P62593); assay: Activity of Escherichia coli TEM1 assessed as drug hydrolysis by spectrophotometry relative to cephaloridine; set-up: scale not given: the % may be the effect or the level left
[9] = target: Beta-lactamase (Pseudomonas aeruginosa (strain ATCC 15692 / PAO1 / 1C / PRS 101 / LMG12228)) (UniProt P24735); assay: Activity of Pseudomonas aeruginosa 18SH AmpC assessed as drug hydrolysis by spectrophotometry relative to cephaloridine; set-up: scale not given: the % may be the effect or the level left
[10] = target: Beta-lactamase (Morganella morganii) (UniProt P94958); assay: Activity of Morganella morganii AmpC assessed as drug hydrolysis by spectrophotometry relative to cephaloridine; set-up: scale not given: the % may be the effect or the level left
[11] = target: Beta-lactamase (Pseudomonas aeruginosa (strain ATCC 15692 / PAO1 / 1C / PRS 101 / LMG12228)) (UniProt P24735); assay: Activity of Pseudomonas aeruginosa AmpC assessed as drug hydrolysis by spectrophotometry relative to cephaloridine; set-up: scale not given: the % may be the effect or the level left
[12] = target: T1, Beta-lactamase (Klebsiella oxytoca); assay: Ratio of Kcat to Km of Klebsiella oxytoca beta-lactamase K1 assessed as drug hydrolysis by spectrophotometry relative to cephaloridine; set-up: scale not given: the % may be the effect or the level left
[13] = target: Beta-lactamase (Serratia marcescens) (UniProt P18539); assay: Activity of Serratia marcescens AmpC assessed as drug hydrolysis by spectrophotometry relative to cephaloridine; set-up: scale not given: the % may be the effect or the level left
[14] = target: Beta-lactamase (Pseudomonas aeruginosa (strain ATCC 15692 / PAO1 / 1C / PRS 101 / LMG12228)) (UniProt P24735); assay: Activity of Pseudomonas aeruginosa 4352 AmpC assessed as drug hydrolysis by spectrophotometry relative to cephaloridine; set-up: scale not given: the % may be the effect or the level left
[15] = target: Beta-lactamase (Morganella morganii) (UniProt P94958); assay: Ratio of Kcat to Km of Morganella morganii AmpC assessed as drug hydrolysis by spectrophotometry relative to cephaloridine; set-up: scale not given: the % may be the effect or the level left
Klebsiella pneumoniae [16] = assay: Ratio of Kcat to Km of Klebsiella pneumoniae TEM26 assessed as drug hydrolysis by spectrophotometry relative to cephaloridine; set-up: scale not given: the % may be the effect or the level left
[17] = target: Beta-lactamase VIM-2 (Pseudomonas aeruginosa) (UniProt Q9K2N0); assay: Activity of Pseudomonas aeruginosa VIM2 assessed as drug hydrolysis by spectrophotometry relative to cephaloridine; set-up: scale not given: the % may be the effect or the level left
[18] = target: T3, Carbapenem-hydrolyzing beta-lactamase SME-3 (Serratia marcescens) (UniProt Q6PRG8); assay: Ratio of Kcat to Km of Serratia marcescens SME3 assessed as drug hydrolysis by spectrophotometry relative to cephaloridine; set-up: scale not given: the % may be the effect or the level left
T3 sequence (whole entry): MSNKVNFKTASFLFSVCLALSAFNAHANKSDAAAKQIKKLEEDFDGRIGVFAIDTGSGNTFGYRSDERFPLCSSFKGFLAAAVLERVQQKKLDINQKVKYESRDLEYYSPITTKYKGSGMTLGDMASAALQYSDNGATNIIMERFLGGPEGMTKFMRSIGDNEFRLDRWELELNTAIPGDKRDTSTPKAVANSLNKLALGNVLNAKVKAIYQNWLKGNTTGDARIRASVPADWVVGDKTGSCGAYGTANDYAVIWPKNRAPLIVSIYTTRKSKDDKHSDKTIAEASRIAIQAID

[19] = target: T4, Beta-lactamase (Providencia stuartii) (UniProt O69773); assay: Ratio of Kcat to Km of Providencia stuartii AmpC assessed as drug hydrolysis by spectrophotometry relative to cephaloridine; set-up: scale not given: the % may be the effect or the level left
T4 sequence (whole entry): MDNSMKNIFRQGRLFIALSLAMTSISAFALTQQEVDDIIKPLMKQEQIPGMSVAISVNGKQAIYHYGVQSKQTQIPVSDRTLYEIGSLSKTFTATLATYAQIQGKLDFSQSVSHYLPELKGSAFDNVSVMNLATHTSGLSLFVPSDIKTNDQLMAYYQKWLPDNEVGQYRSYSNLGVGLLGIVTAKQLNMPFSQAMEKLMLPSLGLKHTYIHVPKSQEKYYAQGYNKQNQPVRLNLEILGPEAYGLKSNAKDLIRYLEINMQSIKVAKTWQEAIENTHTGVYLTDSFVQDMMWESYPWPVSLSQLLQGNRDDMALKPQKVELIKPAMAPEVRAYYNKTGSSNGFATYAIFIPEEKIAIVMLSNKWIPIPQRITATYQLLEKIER

Klebsiella pneumoniae [20] = assay: Ratio of Kcat to Km of Klebsiella pneumoniae TEM26 assessed as drug hydrolysis by spectrophotometry
[21] = target: T4, Beta-lactamase (Providencia stuartii); assay: Activity of Providencia stuartii AmpC assessed as drug hydrolysis by spectrophotometry relative to cephaloridine; set-up: scale not given: the % may be the effect or the level left
[22] = target: Beta-lactamase CTX-M (Escherichia coli) (UniProt Q9EXV5); assay: Activity of Escherichia coli CTX-M-15 assessed as drug hydrolysis by spectrophotometry relative to cephaloridine; set-up: scale not given: the % may be the effect or the level left
[23] = target: Beta-lactamase TEM (Escherichia coli) (UniProt P62593); assay: Ratio of Kcat to Km of Escherichia coli TEM1 assessed as drug hydrolysis by spectrophotometry relative to cephaloridine; set-up: scale not given: the % may be the effect or the level left
[24] = target: Beta-lactamase (Pseudomonas aeruginosa (strain ATCC 15692 / PAO1 / 1C / PRS 101 / LMG12228)) (UniProt P24735); assay: Activity of Pseudomonas aeruginosa MK-1184 AmpC assessed as drug hydrolysis by spectrophotometry relative to cephaloridine; set-up: scale not given: the % may be the effect or the level left
[25] = target: Beta-lactamase VIM-2 (Pseudomonas aeruginosa) (UniProt Q9K2N0); assay: Ratio of Kcat to Km of Pseudomonas aeruginosa VIM2 assessed as drug hydrolysis by spectrophotometry relative to cephaloridine; set-up: scale not given: the % may be the effect or the level left
[26] = target: Beta-lactamase CTX-M (Escherichia coli) (UniProt Q9EXV5); assay: Ratio of Kcat to Km of Escherichia coli CTX-M-15 assessed as drug hydrolysis by spectrophotometry relative to cephaloridine; set-up: scale not given: the % may be the effect or the level left
[27] = target: T3, Carbapenem-hydrolyzing beta-lactamase SME-3 (Serratia marcescens); assay: Activity of Serratia marcescens SME3 assessed as drug hydrolysis by spectrophotometry relative to cephaloridine; set-up: scale not given: the % may be the effect or the level left
[28] = target: Beta-lactamase (Pseudomonas aeruginosa (strain ATCC 15692 / PAO1 / 1C / PRS 101 / LMG12228)) (UniProt P24735); assay: Ratio of Kcat to Km of Pseudomonas aeruginosa 4352 AmpC assessed as drug hydrolysis by spectrophotometry relative to cephaloridine; set-up: scale not given: the % may be the effect or the level left
Klebsiella pneumoniae [29] = assay: Activity of Klebsiella pneumoniae TEM26 assessed as drug hydrolysis by spectrophotometry
[30] = target: T2, Beta-lactamase SHV-1 (Klebsiella pneumoniae); assay: Ratio of Kcat to Km of Klebsiella pneumoniae SHV1 assessed as drug hydrolysis by spectrophotometry relative to cephaloridine; set-up: scale not given: the % may be the effect or the level left
[31] = target: Beta-lactamase (Serratia marcescens) (UniProt P18539); assay: Ratio of Kcat to Km of Serratia marcescens AmpC assessed as drug hydrolysis by spectrophotometry relative to cephaloridine; set-up: scale not given: the % may be the effect or the level left
[32] = target: Beta-lactamase (Pseudomonas aeruginosa (strain ATCC 15692 / PAO1 / 1C / PRS 101 / LMG12228)) (UniProt P24735); assay: Ratio of Kcat to Km of Pseudomonas aeruginosa MK-1184 AmpC assessed as drug hydrolysis by spectrophotometry relative to cephaloridine; set-up: scale not given: the % may be the effect or the level left
[33] = target: Beta-lactamase (Pseudomonas aeruginosa (strain ATCC 15692 / PAO1 / 1C / PRS 101 / LMG12228)) (UniProt P24735); assay: Ratio of Kcat to Km of Pseudomonas aeruginosa AmpC assessed as drug hydrolysis by spectrophotometry relative to cephaloridine; set-up: scale not given: the % may be the effect or the level left

Chain of Beta-lactamase (Pseudomonas aeruginosa (strain ATCC 15692 / PAO1 / 1C / PRS 101 / LMG12228)) (P24735 27-397 limits assumed): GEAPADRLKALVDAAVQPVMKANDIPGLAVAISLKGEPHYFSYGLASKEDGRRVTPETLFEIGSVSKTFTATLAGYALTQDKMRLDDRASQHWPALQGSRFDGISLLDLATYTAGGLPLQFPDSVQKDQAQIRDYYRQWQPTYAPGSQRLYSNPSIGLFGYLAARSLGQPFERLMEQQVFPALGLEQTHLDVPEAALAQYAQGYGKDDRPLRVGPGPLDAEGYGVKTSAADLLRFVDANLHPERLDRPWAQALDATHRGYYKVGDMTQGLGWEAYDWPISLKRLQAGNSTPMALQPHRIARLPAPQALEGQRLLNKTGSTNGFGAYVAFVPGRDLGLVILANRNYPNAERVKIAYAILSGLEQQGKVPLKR
Chain of Beta-lactamase TEM (Escherichia coli) (P62593 whole entry): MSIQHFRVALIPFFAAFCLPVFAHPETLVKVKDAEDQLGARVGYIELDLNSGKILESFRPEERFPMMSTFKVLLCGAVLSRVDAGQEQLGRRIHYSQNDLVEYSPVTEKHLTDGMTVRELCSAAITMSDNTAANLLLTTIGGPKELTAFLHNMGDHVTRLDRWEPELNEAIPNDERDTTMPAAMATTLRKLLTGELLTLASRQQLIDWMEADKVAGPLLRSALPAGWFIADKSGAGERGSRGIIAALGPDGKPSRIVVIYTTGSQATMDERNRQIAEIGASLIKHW
Chain of Beta-lactamase (Serratia marcescens) (P18539 whole entry): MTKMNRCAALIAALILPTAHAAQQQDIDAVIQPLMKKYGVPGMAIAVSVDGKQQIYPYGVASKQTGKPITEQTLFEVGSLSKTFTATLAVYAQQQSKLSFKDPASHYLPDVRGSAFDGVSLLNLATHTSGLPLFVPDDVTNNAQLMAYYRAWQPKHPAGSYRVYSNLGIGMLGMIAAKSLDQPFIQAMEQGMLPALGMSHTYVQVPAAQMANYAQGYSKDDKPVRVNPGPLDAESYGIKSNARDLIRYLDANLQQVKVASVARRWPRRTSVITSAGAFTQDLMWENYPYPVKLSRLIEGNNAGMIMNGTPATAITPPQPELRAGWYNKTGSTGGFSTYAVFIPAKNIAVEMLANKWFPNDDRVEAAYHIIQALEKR
Chain of Beta-lactamase (Staphylococcus aureus) (P00807 whole entry): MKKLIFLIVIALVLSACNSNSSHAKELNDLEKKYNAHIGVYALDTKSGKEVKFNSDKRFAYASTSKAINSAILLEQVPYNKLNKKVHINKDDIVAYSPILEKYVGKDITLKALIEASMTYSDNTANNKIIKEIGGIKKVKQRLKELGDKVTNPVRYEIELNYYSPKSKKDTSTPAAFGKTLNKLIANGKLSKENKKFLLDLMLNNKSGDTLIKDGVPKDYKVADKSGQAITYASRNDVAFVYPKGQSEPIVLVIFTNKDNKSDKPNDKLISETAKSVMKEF
Chain of Metallo beta-lactamase (Pseudomonas aeruginosa) (Q6TUJ4 as listed by the source): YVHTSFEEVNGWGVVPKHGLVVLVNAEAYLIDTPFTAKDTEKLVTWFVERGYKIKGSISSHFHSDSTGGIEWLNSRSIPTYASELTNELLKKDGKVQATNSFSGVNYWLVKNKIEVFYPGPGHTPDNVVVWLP

Row | SMILES | Activity (Klebsiella pneumoniae [1]) | Activity [2] | Activity [3] | Activity [4] | Activity [5] | Activity [6] | Activity [7] | Activity [8] | Activity [9] | Activity [10] | Activity [11] | Activity [12] | Activity [13] | Activity [14] | Activity [15] | Activity (Klebsiella pneumoniae [16]) | Activity [17] | Activity [18] | Activity [19] | kcat/Km (Klebsiella pneumoniae [20]) | further results
1 | CC(C)(O/N=C(\C(=O)N[C@@H]1C(=O)N2C(C(=O)[O-])=C(C[n+]3ccccc3)CS[C@H]12)c1csc(N)n1)C(=O)O | 260% | 0.83% | 0.25% | 0.0026% | 0.0026% | 0.92% | 120% | 0.00023% | < 0.1% | < 0.14% | < 0.059% | 0.0018% | < 0.0025% | < 0.01% | < 2.5% | 130% | 0.19% | 0.031% | 1.3% | 730000 M⁻¹ s⁻¹ | Activity [21]: 0.036%; Activity [22]: 2.3%; Activity [23]: 0.00067%; Activity [24]: 3.1%; Activity [25]: 1.7%; Activity [26]: 0.37%; Activity [27]: 0.013%; Activity [28]: 0.42%; Km (Klebsiella pneumoniae [29]): 130 µM; kcat (Klebsiella pneumoniae [29]): 95 s⁻¹; Activity [30]: 0.00084%; Activity [31]: < 0.0028%; Activity [32]: 5.3%
2 | Nc1nc(/C(=N/O)C(=O)N[C@@H]2C(=O)N3C(C(=O)O)=C(/C=C4\CCN([C@@H]5CCNC5)C4=O)CS[C@H]23)ns1 | 19% | 0.71% | 17% | 33% | 6% | 24% | 990% | 0.9% | 0.028% | < 0.0064% | 1400% | 100% | < 0.14% | < 0.024% | < 0.071% | 20% | 13% | 0.73% | 0.11% | 110000 M⁻¹ s⁻¹ | Activity [33]: 9900%; Activity [21]: 0.03%; Activity [22]: 140%; Activity [23]: 1.6%; Activity [24]: 2%; Activity [25]: 380%; Activity [26]: 290%; Activity [27]: 0.49%; Activity [28]: 0.14%; Km (Klebsiella pneumoniae [29]): 63 µM; kcat (Klebsiella pneumoniae [29]): 6.9 s⁻¹; Activity [30]: 7.4%; Activity [31]: < 0.27%; Activity [32]: 1%

Reference: ChEMBL document CHEMBL1143427, “Interactions of ceftobiprole with beta-lactamases from molecular classes A to D” (Antimicrob Agents Chemother, 2007)
